Key:
[1] = tested on: larva of Spodoptera litura; experiment: Test against larva of Spodoptera litura (leaf dip, sweet potato leaves); format: in vivo; settings: 20 ppm concentration of the active component; third instar larvae; counted after 7 days; 25° C.
Procedure: Preparation of Test Solution:
In order to make an appropriate formulation of an active compound, 1 part by weight of the active compound was mixed with the above-mentioned amount of solvent containing the above-mentioned amount of emulsifier and the mixture was diluted with water to a prescribed concentration.
Leaves of sweet potato were soaked in the test solution diluted to a prescribed concentration with water, dried in the air and put in a dish of 9 cm diameter.
10 larvae of Spodoptera litura at the third instar were placed on the leaves and kept in a room at the constant temperature of 25° C. After 2 and 4 days further leaves of sweet potato were added and after 7 days the number of dead larvae was counted and the rate of death was calculated.
In this test the results of 2 dishes at 1 section were averaged.

[2] = tested on: larva of Cnaphalocrocis medinalis Guenee; experiment: Test against larva of Cnaphalocrocis medinalis Guenee (sprayed paddy rice foliage); format: in vivo; settings: 20 ppm concentration of the active component; second instar larvae; counted after 7 days; 25° C.
Procedure: Paddy rice (variety: Tamanishiki) planted in a pot was treated by spraying 50 ml per pot of the diluted aqueous solution of the prescribed concentration of the active compound prepared in the same manner as in the above-mentioned Biological Test Example 1. After the treated rice plant was dried in the air, their foliage part was cut in 4-5 cm length, which were put in a dish with 9 cm diameter with a sheet of filter paper and 2 ml of water. Five larvae of Cnaphalocrocis medinalis Guenee at the second instar were put in the dish that was placed in a room at the constant temperature of 25° C. After 2 and 4 days, each rest (each ⅓ amount) of foliage parts of rice plant were cut in the same manner and added to the dish. After 7 days the number of dead larvae was counted and the rate of death was calculated. In this test the results of 2 dishes at 1 section were averaged.

With `CSCC(C)NC(=O)c1c(OS(C)(=O)=O)cccc1C(=O)Nc1ccc(Cn2nc(C(F)(F)F)nc2C(F)(F)F)cc1C` (stereo not shown) [compound 251] the “controlling effect, rate of death” value [1] was 100% and the “controlling effect, rate of death” value [2] was 100%.

`Cc1cc(Cn2nc(C(F)(F)F)nc2C(F)(F)F)ccc1NC(=O)c1cccc(OS(C)(=O)=O)c1C(=O)NC(C)C[S+](C)[O-]` (stereo not shown) [compound 253] was tested, and the “controlling effect, rate of death” value [1] was 100% and the “controlling effect, rate of death” value [2] was 100%.

In the case of `CSCC(C)NC(=O)c1c(I)cccc1C(=O)Nc1ccc(Cc2c(C(F)(F)F)nn(C(F)F)c2OC(F)F)cc1C` (stereo not shown) [compound 262], the “controlling effect, rate of death” value [1] is reported as 100% and the “controlling effect, rate of death” value [2] is reported as 100%.

For `Cc1cc(Cc2c(C(F)(F)F)nn(C(F)F)c2OC(F)F)ccc1NC(=O)c1cccc(I)c1C(=O)NC(C)CS(C)(=O)=O` (stereo not shown) [compound 264], the “controlling effect, rate of death” value [1] was 100% and the “controlling effect, rate of death” value [2] was 100%.

For `CSCC(C)NC(=O)c1c(I)cccc1C(=O)Nc1ccc(Cc2c(OC(F)F)nn(C(F)F)c2C(F)(F)F)cc1C` (stereo not shown) [compound 268], the “controlling effect, rate of death” value [1] was 100% and the “controlling effect, rate of death” value [2] was 100%.

In the case of `Cc1cc(Cc2c(OC(F)F)nn(C(F)F)c2C(F)(F)F)ccc1NC(=O)c1cccc(I)c1C(=O)NC(C)CS(C)(=O)=O` (stereo not shown) [compound 270], the “controlling effect, rate of death” value [1] is reported as 100% and the “controlling effect, rate of death” value [2] is reported as 100%.

For `CSCC(C)NC(=O)c1c(I)cccc1C(=O)Nc1ccc(Cn2cc(C(F)(F)F)nc2C(F)(F)F)cc1C` (stereo not shown) [compound 281], the “controlling effect, rate of death” value [1] was 100% and the “controlling effect, rate of death” value [2] was 100%.

With `CSCC(C)NC(=O)c1c(I)cccc1C(=O)Nc1ccc(Cn2c(C(F)(F)F)nnc2C(F)(F)F)cc1C` (stereo not shown) [compound 299] the “controlling effect, rate of death” value [1] was 100% and the “controlling effect, rate of death” value [2] was 100%.

`CSCC(C)(C)NC(=O)c1c(I)cccc1C(=O)Nc1ccc(Oc2nc(C(F)(F)F)cc(C(F)(F)F)n2)cc1C` [compound 308] was tested, and the “controlling effect, rate of death” value [1] was 100% and the “controlling effect, rate of death” value [2] was 100%.

In the case of `Cc1cc(Oc2nc(C(F)(F)F)cc(C(F)(F)F)n2)ccc1NC(=O)c1cccc(I)c1C(=O)NC(C)(C)CS(C)(=O)=O` [compound 310], the “controlling effect, rate of death” value [1] is reported as 100% and the “controlling effect, rate of death” value [2] is reported as 100%.

With `CSCC(C)NC(=O)c1c(Cl)cccc1C(=O)Nc1ccc(-n2nc(C(F)(F)F)cc2C(F)(F)F)cc1C` (stereo not shown) [compound 318] the “controlling effect, rate of death” value [1] was 100% and the “controlling effect, rate of death” value [2] was 100%.

In the case of `Cc1cc(-n2nc(C(F)(F)F)cc2C(F)(F)F)ccc1NC(=O)c1cccc(Cl)c1C(=O)NC(C)CS(C)(=O)=O` (stereo not shown) [compound 322], the “controlling effect, rate of death” value [1] is reported as 100% and the “controlling effect, rate of death” value [2] is reported as 100%.

`CSCC(C)NC(=O)c1c(I)cccc1C(=O)Nc1ccc(-n2nc(C(F)(F)F)cc2C(F)(F)F)cc1C` (stereo not shown) [compound 413] was tested, and the “controlling effect, rate of death” value [1] was 100% and the “controlling effect, rate of death” value [2] was 100%.

In the case of `CSCC(C)NC(=O)c1c(I)cccc1C(=O)Nc1ccc(-n2nc(C(F)(F)F)cc2C(F)(F)F)cc1C` (stereo not shown) [compound 414], the “controlling effect, rate of death” value [1] is reported as 100% and the “controlling effect, rate of death” value [2] is reported as 100%.

For `Cc1cc(-n2nc(C(F)(F)F)cc2C(F)(F)F)ccc1NC(=O)c1cccc(I)c1C(=O)NC(C)CS(C)(=O)=O` (stereo not shown) [compound 417], the “controlling effect, rate of death” value [1] was 100% and the “controlling effect, rate of death” value [2] was 100%.

For `CSCC(C)(C)NC(=O)c1c(I)cccc1C(=O)Nc1ccc(-n2nccc2C(F)(F)C(F)(F)F)cc1C` [compound 422], the “controlling effect, rate of death” value [1] was 100% and the “controlling effect, rate of death” value [2] was 100%.

For `CSCC(C)(C)NC(=O)c1c(I)cccc1C(=O)Nc1ccc(-n2ccc(C(F)(F)C(F)(F)F)n2)cc1C` [compound 434], the “controlling effect, rate of death” value [1] was 100% and the “controlling effect, rate of death” value [2] was 100%.

For `Cc1cc(-n2cc(C(F)(F)C(F)(F)F)cn2)ccc1NC(=O)c1cccc(I)c1C(=O)NC(C)(C)CS(C)(=O)=O` [compound 448], the “controlling effect, rate of death” value [1] was 100% and the “controlling effect, rate of death” value [2] was 100%.

With `CSCC(C)NC(=O)c1c(I)cccc1C(=O)Nc1ccc(-n2nc(C(F)(F)C(F)(F)F)cc2C(F)(F)F)cc1C` (stereo not shown) [compound 473] the “controlling effect, rate of death” value [1] was 100% and the “controlling effect, rate of death” value [2] was 100%.

In the case of `Cc1cc(-n2nc(C(F)(F)C(F)(F)F)cc2C(F)(F)F)ccc1NC(=O)c1cccc(I)c1C(=O)NC(C)CS(C)(=O)=O` (stereo not shown) [compound 475], the “controlling effect, rate of death” value [1] is reported as 100% and the “controlling effect, rate of death” value [2] is reported as 100%.

`CSC[C@H](C)NC(=O)c1c(OS(C)(=O)=O)cccc1C(=O)Nc1ccc(-n2nc(C(F)(F)F)cc2C(F)(F)F)cc1C` [compound 492] was tested, and the “controlling effect, rate of death” value [1] was 100% and the “controlling effect, rate of death” value [2] was 100%.

In the case of `CSCC(C)NC(=O)c1c(I)cccc1C(=O)Nc1ccc(-c2cc(C(F)(F)F)nn2CC(F)(F)F)cc1C` (stereo not shown) [compound 506], the “controlling effect, rate of death” value [1] is reported as 100% and the “controlling effect, rate of death” value [2] is reported as 100%.

With `Cc1cc(-c2cc(C(F)(F)F)nn2CC(F)(F)F)ccc1NC(=O)c1cccc(I)c1C(=O)NC(C)CS(C)(=O)=O` (stereo not shown) [compound 508] the “controlling effect, rate of death” value [1] was 100% and the “controlling effect, rate of death” value [2] was 100%.

In the case of `CSCC(C)NC(=O)c1c(I)cccc1C(=O)Nc1ccc(-c2cc(C(F)(F)F)nn2C(F)F)cc1C` (stereo not shown) [compound 512], the “controlling effect, rate of death” value [1] is reported as 100% and the “controlling effect, rate of death” value [2] is reported as 100%.

For `CSCC(C)NC(=O)c1c(I)cccc1C(=O)Nc1ccc(-c2cc(OC(F)F)n(C(F)F)n2)cc1C` (stereo not shown) [compound 518], the “controlling effect, rate of death” value [1] was 100% and the “controlling effect, rate of death” value [2] was 100%.

In the case of `Cc1cc(-c2cc(OC(F)F)n(C(F)F)n2)ccc1NC(=O)c1cccc(I)c1C(=O)NC(C)CS(C)(=O)=O` (stereo not shown) [compound 520], the “controlling effect, rate of death” value [1] is reported as 100% and the “controlling effect, rate of death” value [2] is reported as 100%.

`Cc1cc(Cn2nc(C(F)(F)F)cc2C(F)(F)F)ccc1NC(=O)c1cccc(I)c1C(=O)N[C@@H](C)CSC(C)C` [compound 539] was tested, and the “controlling effect, rate of death” value [1] was 100% and the “controlling effect, rate of death” value [2] was 100%.

In the case of `CSC[C@H](C)NC(=O)c1c(C(=O)Nc2ccc(Cn3nc(C(F)(F)F)cc3C(F)(F)F)cc2C)cccc1[N+](=O)[O-]` [compound 543], the “controlling effect, rate of death” value [1] is reported as 100% and the “controlling effect, rate of death” value [2] is reported as 100%.

`Cc1cc(Cn2nc(C(F)(F)F)cc2C(F)(F)F)ccc1NC(=O)c1cccc([N+](=O)[O-])c1C(=O)N[C@@H](C)C[S+](C)[O-]` (stereo partly shown) [compound 544] was tested, and the “controlling effect, rate of death” value [1] was 100% and the “controlling effect, rate of death” value [2] was 100%.

For `Cc1cc(Cn2nc(C(F)(F)F)cc2C(F)(F)F)ccc1NC(=O)c1cccc([N+](=O)[O-])c1C(=O)N[C@@H](C)CS(C)(=O)=O` [compound 545], the “controlling effect, rate of death” value [1] was 100% and the “controlling effect, rate of death” value [2] was 100%.

In the case of `CSC[C@H](C)NC(=O)c1c(C(=O)Nc2ccc(Cn3nc(C(F)(F)F)nc3C(F)(F)F)cc2C)cccc1[N+](=O)[O-]` [compound 546], the “controlling effect, rate of death” value [1] is reported as 100% and the “controlling effect, rate of death” value [2] is reported as 100%.

In the case of `Cc1cc(Cn2nc(C(F)(F)F)nc2C(F)(F)F)ccc1NC(=O)c1cccc([N+](=O)[O-])c1C(=O)N[C@@H](C)C[S+](C)[O-]` (stereo partly shown) [compound 547], the “controlling effect, rate of death” value [1] is reported as 100% and the “controlling effect, rate of death” value [2] is reported as 100%.

For `Cc1cc(Cn2nc(C(F)(F)F)nc2C(F)(F)F)ccc1NC(=O)c1cccc([N+](=O)[O-])c1C(=O)N[C@@H](C)CS(C)(=O)=O` [compound 548], the “controlling effect, rate of death” value [1] was 100% and the “controlling effect, rate of death” value [2] was 100%.

With `CSC[C@H](C)NC(=O)c1c(F)cccc1C(=O)Nc1ccc(Cn2nc(C(F)(F)F)cc2C(F)(F)F)cc1C` [compound 549, N^1-{4-[3,5-bis(trifluoromethyl)-1H-pyrazol-1-ylmethyl]-2-methylphenyl}-3-fluoro-N^2-[1-(S)-1-methyl-2-methylsulfanyl-ethyl]-phthalamide] the “controlling effect, rate of death” value [1] was 100% and the “controlling effect, rate of death” value [2] was 100%.

For `CSC[C@H](C)NC(=O)c1c(C(=O)Nc2ccc(Cn3nc(C(F)(F)F)cc3C(F)(F)F)cc2C)cccc1S(C)(=O)=O` [compound 552], the “controlling effect, rate of death” value [1] was 100% and the “controlling effect, rate of death” value [2] was 100%.

With `CSC[C@H](C)NC(=O)c1c(I)cccc1C(=O)Nc1ccc(Cn2nc(C(F)(F)F)c(I)c2C(F)(F)F)cc1C` [compound 554] the “controlling effect, rate of death” value [1] was 100% and the “controlling effect, rate of death” value [2] was 100%.

For `CSC[C@H](C)NC(=O)c1c(Cl)cccc1C(=O)Nc1ccc(C(C)n2nc(C(F)(F)F)cc2C(F)(F)F)cc1C` (stereo partly shown) [compound 559], the “controlling effect, rate of death” value [1] was 100% and the “controlling effect, rate of death” value [2] was 100%.

`Cc1cc(C(C)n2nc(C(F)(F)F)cc2C(F)(F)F)ccc1NC(=O)c1cccc(Cl)c1C(=O)N[C@@H](C)CS(C)(=O)=O` (stereo partly shown) [compound 561] was tested, and the “controlling effect, rate of death” value [1] was 100% and the “controlling effect, rate of death” value [2] was 100%.

With `CSC[C@H](C)NC(=O)c1c(I)cccc1C(=O)Nc1ccc(C(C)n2nc(C(F)(F)F)cc2C(F)(F)F)cc1C` (stereo partly shown) [compound 562] the “controlling effect, rate of death” value [1] was 100% and the “controlling effect, rate of death” value [2] was 100%.

For `Cc1cc(C(C)n2nc(C(F)(F)F)cc2C(F)(F)F)ccc1NC(=O)c1cccc(I)c1C(=O)N[C@@H](C)C[S+](C)[O-]` (stereo partly shown) [compound 563], the “controlling effect, rate of death” value [1] was 100% and the “controlling effect, rate of death” value [2] was 100%.

`Cc1cc(C(C)n2nc(C(F)(F)F)cc2C(F)(F)F)ccc1NC(=O)c1cccc(I)c1C(=O)N[C@@H](C)CS(C)(=O)=O` (stereo partly shown) [compound 564] was tested, and the “controlling effect, rate of death” value [1] was 100% and the “controlling effect, rate of death” value [2] was 100%.

Source: patent US7674807B2, “Heterocycle-substituted n-phenyl-phthalamide derivatives, related compounds and their use as insecticides” (Bayer CropScience AG, priority 2004, dated 2010)
